In patent US11565003B2, “Mechanical opening of lipid bilayers by molecular nanomachines” (William Marsh Rice University, priority 2016, dated 2023):

Tests used:
[1] = test system: NIH 3T3 cells; assay: UV-activated nanomechanical necrosis, live cell confocal microscopy, NIH 3T3; type: cell-based, mouse; details: for Time of Full Necrosis / Time of Initial Necrosis / % acceleration for full necrosis: 355 nm UV; for % acceleration for full necrosis: versus UV upon blank cells
Method: Following the synthetic bilipid vesicle experiments, nanomechanical action upon live cells was studied using confocal microscopy aided by a super-resolution technique called Phase Modulation Nanoscopy. Applicants used two experimental methods. In the first method (Method A), the molecular motors were loaded into the cell media and the imaging was initiated within 5 minutes to 24 hours. In the second method, (Method B), the molecular motors were loaded into the cell media, incubated for 30 minutes to 24 hours, and then washed three times with fresh molecular motor-free media before imaging. […]
(§1) Microscopy cells were seeded in untreated iBibi 100 μL live cell channels and allowed to grow to 40% to 60% confluence, at 37° C. in 5% CO2. At this stage, the medium was replaced and cells were treated with the studied nanomachines and co-stains as appropriate, with 0.1% DMSO (as detailed above) present in the final imaging medium. For live cell imaging, DMEM/F12 media (10% FBS) lacking phenol red was used from this point onwards. Following incubation, where Method B was used, the channels were washed with live cell imaging media and imaged using a purpose build incubator housing the microscope maintaining 37° C., 5% CO2 and 10% humidity.
(§2) All live cell imaging experiments used either NIH 3T3 mouse skin fibroblast cells, PC-3 cells, a grade 3 human prostate adenocarcinoma, or Chinese hamster ovary cells (CHO). These are all well-studied cell lines with discrete morphological compositions. Each molecular machine was used as a stock solution at 0.10 to 1.00 μM with total dimethyl sulfoxide (DMSO) concentrations not exceeding 0.1% in the final cell media in order to avoid unwanted cell membrane permeabilization, the DMSO being required for solubility of the organic nanomachines. All loading experiments are carried out in a light-suppressed manner and the possibility of induced or accelerated uptake due to interaction between the molecular motors and the applied co-stain has been eliminated using a series of individual and reversed loading experiments.
(§3) All experimental imaging parameters (i.e., laser beam size, confocal pinhole size, laser intensity, line scanning speed, scanning area (field of view, FOV), and line averaging sequences) were kept constant throughout the experiments. The accuracy and errors associated with the establishment of accelerated necrosis are determined based on one dual channel imaging sequence, which takes 15 seconds in total. This imaging sequence has been carefully established using untreated live cells.
(§4) Steady state fluorescence images were recorded using a PhMoNa enhanced Leica SP5 II LSCM equipped with a HCX PL APO 63×/1.40 NA LambdaBlue Oil immersion objective. As an initial control experiment to establish the UV-induced cell toxicity threshold, while mitigating voxel exposure and ensuring sufficient laser dwell time, an imaging sequence has been established to monitor cell morphological and physiological changes as a function of time. All experiments used cell-line-determined culture medium containing 0.1% DMSO.
The applied 100 Hz detection sequence was based on a bidirectional dual-channel continuous scanning method where a minimalistic non-damaging visible laser light (458 nm, 0.2 mW) is used in conjunction with the above detailed UV exposure. This is set as a 2 line/scan accumulation parallel acquisition sequence that is recorded as a function of time. Studied channels correspond to transmission images and UV-induced mitochondrial auto-fluorescence detected at 460 to 550 nm. Applicants further confirmed that the effectiveness of monitoring the UV-activated nanomechanical action on live cells using a conventional CW mercury-arc excitation source equipped with an epi-fluorescence setup consisting of a Zeiss Axiovert 200M inverted microscope, as discussed in FIGS. 18A-C. […]

[2] = test system: PC-3 cells; assay: UV-activated nanomechanical necrosis, live cell confocal microscopy, PC-3; type: cell-based, human; details: for Time of Full Necrosis / Time of Initial Necrosis / % acceleration for full necrosis: 355 nm UV; for % acceleration for full necrosis: versus UV upon blank cells
Method: (§5) Following the synthetic bilipid vesicle experiments, nanomechanical action upon live cells was studied using confocal microscopy aided by a super-resolution technique called Phase Modulation Nanoscopy. Applicants used two experimental methods. In the first method (Method A), the molecular motors were loaded into the cell media and the imaging was initiated within 5 minutes to 24 hours. In the second method, (Method B), the molecular motors were loaded into the cell media, incubated for 30 minutes to 24 hours, and then washed three times with fresh molecular motor-free media before imaging.
Next, Applicants used the smaller nanomachine, 3. Initial control experiments (blank) were performed without nanomachines being present. UV-induced (355 nm) PC-3 necrosis is not initiated until approximately scan 20 (corresponding to 300 second continuous scanning UV exposure, 400 nJ/voxel total dwell time), characterized by massive disruption and rupture of the mitochondrial network and subsequent well-pronounced auto-fluorescent signal detectable in the nucleoli and nucleus wall (FIG. 7A). This is observable by the nucleoli membrane permeabilization and DNA damage at the onset of necrosis. The UV-induced necrosis reaches final stages at approximately scan 40 (corresponding to 600 seconds) that is consistent with characteristic extracellular membrane rupture and homogenous cytosolic auto-fluorescence, indicating loss of cellular organelle boundaries.
as §1, §2, §3
as §4, with “DMSO. […]” for “DMSO.”

[3] = test system: NIH 3T3 cells; assay: Uptake, localization and toxicity of fluorescent nanomachines without UV-light exposure; type: cell-based, mouse
Method: as §5
Applicants first studied the effect of the nanomachines on the cells without UV-light exposure. […] However, due to 1 and 2 having well-pronounced visible fluorescence properties corresponding to the cy5 and BODIPY addends (FIGS. 5A-B and Table 1, respectively), their intracellular uptake, motion or protein/organelle-assisted trafficking are clearly observed. The two luminescent compounds display very different localization patterns.
Applicants undertook a series of control experiments to confirm active molecular motor uptake and suspected endocytosis, using a range of nanomachine loading concentrations (0.10-1.00 μM, Method A) and incubation times of 5-60 minutes at 4° C., which is a temperature of general endocytosis inhibition.

[4] = test system: HEK293 cells; assay: Whole cell patch clamp electrophysiology; type: cell-based, human
Method: FIGS. 16A-B show whole-cell patch clamp studies of the dynamic effects of UV-induced molecular mechanical action of compound 3 upon HEK293 cells. Also shown are control studies using compound 3 without UV activation, UV-exposed rotor-free control molecule 5, and no molecular additives x. Compounds 3 and 5 were used at 1.0 μM concentrations. […] Similarly, the rotor-free compound 5, and no molecular additive x, show no inward currents during UV illumination (center two traces). Cells were held at −70 mV in voltage clamp mode and UV exposure began 15 seconds after the start of the recording. Each recording is a biological replicate and all traces are shown (n=4 recordings from different cells for 3+UV; n=3 recordings from different cells for each other condition). […] The white arrows (lower right image) highlight membrane blebbing that appears only in the cells treated with UV-activated compound 3. The scale bar represents 10 μm and is applicable for each micrograph.
The dynamic effects of nanomechanical action upon cellular membranes were then studied through the whole cell patch clamp electrophysiology of human embryonic kidney 293 cells (HEK293) commonly used for electrophysiological interrogation. […] These inward currents were not observed in the absence of UV illumination or during UV illumination of non-rotor-bearing control 5 or UV illumination of untreated cells (FIG. 16A).

[5] = NIH 3T3, Method B (washed three times)
[6] = PC-3, Method B (washed three times)

Compound: C[C@@H]1CSc2ccc3ccccc3c2C1=C1c2cc(C#CCCO)ccc2Sc2ccc(C#CCCO)cc21 (racemic) [Compound 6, reference compound]
- effect on necrosis upon standardized UV-exposure (in words) ([1]; NIH 3T3, Method A): no enhanced necrosis
- Time of Full Necrosis ([1]; NIH 3T3, Method A (no washing)): 615 s
- Time of Initial Necrosis ([1]; NIH 3T3, Method A (no washing)): 300 s
- % acceleration for full necrosis ([1]; NIH 3T3, Method A): 0%
- effect on necrosis upon standardized UV-exposure (in words) ([2]; PC-3, Method A): no enhanced necrosis
- Time of Full Necrosis ([2]; PC-3, Method A (no washing)): 600 s
- Time of Initial Necrosis ([2]; PC-3, Method A (no washing)): 300 s
- % acceleration for full necrosis ([2]; PC-3, Method A): 0%

Compound: CC1=CC(C)=[N+]2C1=C(c1ccccc1C(=O)OCc1cn(CCC#Cc3ccc4c(c3)C(=C3c5c(ccc6ccccc56)C[C@H]3C)c3cc(C#CCCn5cc(COC(=O)c6ccccc6C6=C7C(C)=CC(C)=[N+]7[B-](F)(F)n7c(C)cc(C)c76)nn5)ccc3S4)nn1)c1c(C)cc(C)n1[B-]2(F)F (racemic) [Compound 2]
- localized fluorescence at 4° C. (endocytosis inhibition) (in words) ([3]; NIH 3T3, 0.10-1.00 μM, 5-60 minutes, 4° C.): no detectable localized fluorescence
- intracellular localization without UV (in words) ([3]; NIH 3T3, Method A, 0.10-1.00 μM): enters the cell and localizes in the mitochondria
- necrosis without UV-light exposure (in words) ([3]; NIH 3T3, Method A, no UV): do not induce accelerated necrosis
- toxicity in the applied time and concentration regimes (in words) ([3]; NIH 3T3, no UV): non-toxic
- Time of Full Necrosis ([1]; NIH 3T3, Method A (no washing)): 585 s
- Time of Initial Necrosis ([1]; NIH 3T3, Method A (no washing)): 300 s
- % acceleration for full necrosis ([1]; NIH 3T3, Method A): 2.5%
- Time of Full Necrosis [1, 5]: 570 s
- Time of Initial Necrosis [1, 5]: 300 s
- % acceleration for full necrosis ([1]; NIH 3T3, Method B): 5%

Compound: OCCC#Cc1ccc2c(c1)C(=C1CCc3ccc4ccccc4c31)c1cc(C#CCCO)ccc1S2 [NonMe-3, reference compound]
- Time of Full Necrosis ([2]; PC-3, Method A (no washing)): 540 s
- Time of Initial Necrosis ([2]; PC-3, Method A (no washing)): 270 s
- % acceleration for full necrosis ([2]; PC-3, Method A): 10%
- effect on necrosis upon standardized UV-exposure (in words) ([2]; PC-3, Method A, listed as compound analogous to 3 but without the allylic methyl): only slightly faster than the motor-free system
- effect on necrosis upon standardized UV-exposure (in words) ([2]; PC-3, Method A, listed as demethylated 3): slowed necrosis

Compound: O=c1c2cc(C#CCCO)ccc2sc2ccc(C#CCCO)cc12 [Compound 5, reference compound]
- membrane currents without UV illumination (in words) ([4]; HEK293, 1.0 μM, 4 minute recording, no UV): no change in membrane currents
- inward ionic currents during UV illumination (in words) ([4]; HEK293, Method B, UV 355 nm, 1.0 μM): not observed
- effect on necrosis upon standardized UV-exposure (in words) ([1]; NIH 3T3, Method A): no effect on necrosis
- Time of Full Necrosis ([1]; NIH 3T3, Method A (no washing)): 600 s
- Time of Initial Necrosis ([1]; NIH 3T3, Method A (no washing)): 300 s
- % acceleration for full necrosis ([1]; NIH 3T3, Method A): 0%
- effect on necrosis upon standardized UV-exposure (in words) ([2]; PC-3, Method A): no effect on necrosis
- Time of Full Necrosis ([2]; PC-3, Method A (no washing)): 600 s
- Time of Initial Necrosis ([2]; PC-3, Method A (no washing)): 300 s
- % acceleration for full necrosis ([2]; PC-3, Method A): 0%

Compound: Cc1ccc(S(=O)(=O)OCCC#Cc2ccc3c(c2)C(=C2c4c(ccc5ccccc45)C[C@H]2C)c2cc(C#CCCOS(=O)(=O)c4ccc(C)cc4)ccc2S3)cc1 (racemic) [Compound 4]
- Time of Full Necrosis ([1]; NIH 3T3, Method A (no washing)): 540 s
- Time of Initial Necrosis ([1]; NIH 3T3, Method A (no washing)): 270 s
- % acceleration for full necrosis ([1]; NIH 3T3, Method A): 10%
- Time of Full Necrosis ([2]; PC-3, Method A (no washing)): 540 s
- Time of Initial Necrosis ([2]; PC-3, Method A (no washing)): 270 s
- % acceleration for full necrosis ([2]; PC-3, Method A): 10%

Compound: C[C@@H]1Cc2ccc3ccccc3c2C1=C1c2cc(C#CCCn3cc(CCC(=O)N[C@@H](CC(=O)O)C(=O)NCC(=O)N[C@@H](CCC(=O)O)C(=O)N[C@@H](C)C(N)=O)nn3)ccc2Sc2ccc(C#CCCn3cc(CCC(=O)N[C@@H](CC(=O)O)C(=O)NCC(=O)N[C@@H](CCC(=O)O)C(=O)N[C@@H](C)C(N)=O)nn3)cc21 [Compound 7]
- Time of Full Necrosis ([1]; NIH 3T3, Method A (no washing)): 390 s
- Time of Initial Necrosis ([1]; NIH 3T3, Method A (no washing)): 150 s
- % acceleration for full necrosis ([1]; NIH 3T3, Method A): 40%
- Time of Full Necrosis [1, 5]: 390 s
- Time of Initial Necrosis [1, 5]: 165 s
- % acceleration for full necrosis ([1]; NIH 3T3, Method B): 40%
- selectivity for targeted PC-3 cells over non-targeted control cells (in words) ([2]; NIH 3T3 and CHO as non-targeted controls): No selectivity was observed
- Time of Full Necrosis ([2]; PC-3, Method A (no washing)): 360 s
- Time of Initial Necrosis ([2]; PC-3, Method A (no washing)): 165 s
- % acceleration for full necrosis ([2]; PC-3, Method A): 35%
- Time of Full Necrosis [2, 6]: 390 s
- Time of Initial Necrosis [2, 6]: 180 s
- % acceleration for full necrosis ([2]; PC-3, Method B): 35%
